Values of other authors as cited in publication PMC5306265 (Investigational New Drugs, 2016).

Assays:
pERK = test system: pERK; design: method as in PMID 18390968, PMID 24178622; settings: paired tumor biopsies; cited from earlier work
[1] = test system: BRAF V600E/K-mutant melanoma; design: method as in PMID 22663011, PMID 22805292; settings: cited from earlier work

SMILES | geometric mean pERK reduction (pERK) [%] | response rates [1]
Cn1cnc2c(F)c(Nc3ccc(Br)cc3Cl)c(C(=O)NOCCO)cc21 [selumetinib] | 79 | 
CC(=O)Nc1cccc(-n2c(=O)n(C3CC3)c(=O)c3c(Nc4ccc(I)cc4F)n(C)c(=O)c(C)c32)c1 [trametinib] |  | approximately 20%
